Here are results for 22 molecules from patent US10398783B2, “Antiproliferative compounds and conjugates made therefrom” (BRISTOL-MYERS SQUIBB COMPANY, priority 2016, dated 2019).

Some results are limits rather than exact numbers.

Common to all, as to format: cell-based, human
In test [1] the test system is mesothelioma (H226) cancer cell line. Nature of the test: 72 hr ATP luminescence cell proliferation inhibition assay, H226. The method, then: (§1) Proliferation inhibition was measured using a 72 hr ATP luminescence assay (Cheng et al., U.S. Pat. No. 8,394,922 B2 (2013)). The antiproliferative effects are reported as IC50's, i.e., the concentration of compound that produces a 50% inhibitory effect on cell proliferation.

Test [2] deals with gastric (stomach) cancer (N87) cell line. Description: 72 hr ATP luminescence cell proliferation inhibition assay, N87. The conditions noted are these: N87 cells. The procedure: as §1
Test [3] concerns ovarian cancer (OVCAR3) cell line. Nature of the test: 72 hr ATP luminescence cell proliferation inhibition assay, OVCAR3. The procedure:
as §1

Test [4] relates to colon cancer (HCT116) cell line. Description: 72 hr ATP luminescence cell proliferation inhibition assay, HCT116. The procedure:
as §1

What is called IC50 is the concentration at which inhibition is half-maximal. Low values mean greater potency in that assay, high ones weaker potency in that assay.

Take `COc1cc2c(cc1OCCCC(=O)Nc1cc(C(=O)Nc3ccc4c(c3)oc3ccccc34)n(C)c1)N=C[C@@H]1Cc3ccccc3CN1C2=O` [(Ib-33)]: the IC50 was below 0.004 nM in test [1] (H226 cells), below 0.004 nM in test [2], 0.052 nM in test [3] (OVCAR3 cells) and below 0.004 nM in test [4] (HCT116 cells).
As to `COc1cc2c(cc1OCCCC(=O)Nc1cc(C(=O)Nc3ccc4c(c3)Cc3cc(N)ccc3-4)n(C)c1)N=C[C@@H]1Cc3ccccc3CN1C2=O` [(Ib-34)], the IC50 is below 0.004 nM in test [1] (H226 cells), 0.006 nM in test [2], 0.025 nM in test [3] (OVCAR3 cells) and below 0.004 nM in test [4] (HCT116 cells).
As to `COc1ccc(NC(=O)c2cc(NC(=O)CCCOc3cc4c(cc3OC)C(=O)N3Cc5ccccc5C[C@H]3C=N4)cn2C)nc1` [(Ib-35)], the half-maximal inhibitory concentration (IC50) is below 0.004 nM in test [1] (H226 cells), below 0.004 nM in test [2], 0.11 nM in test [3] (OVCAR3 cells) and 0.047 nM in test [4] (HCT116 cells).
Consider `COc1cc2c(cc1OCCCC(=O)Nc1cc(C(=O)Nc3cccc(OCc4ccccc4)n3)n(C)c1)N=C[C@@H]1Cc3ccccc3CN1C2=O` [(Ib-36)], for which the IC50 in test [1] (H226 cells) amounted to 22 nM; in test [2], 3.7 nM; in test [3] (OVCAR3 cells), 2.2 nM; in test [4] (HCT116 cells), 3.7 nM.
As to `COc1cc2c(cc1OCCCC(=O)Nc1cc(C(=O)Nc3cnc4c(c3)ncn4C)n(C)c1)N=C[C@@H]1Cc3ccccc3CN1C2=O` [(Ib-37)], the IC50 amounted to 1.2 nM in test [1] (H226 cells), 1.6 nM in test [2], 5.2 nM in test [3] (OVCAR3 cells) and 1.7 nM in test [4] (HCT116 cells).
For the molecule `COC(=O)c1cc(NC(=O)CCCOc2cc3c(cc2OC)C(=O)N2Cc4ccccc4C[C@H]2C=N3)cn1C` [(Ib-38)], the IC50 stood at 1.1 nM in test [1] (H226 cells), 1.1 nM in test [2], 0.66 nM in test [3] (OVCAR3 cells) and 1.1 nM in test [4] (HCT116 cells).
Consider `COC(=O)c1cc(-c2ccc(NC(=O)c3cc(NC(=O)CCCOc4cc5c(cc4OC)C(=O)N4Cc6ccccc6C[C@H]4C=N5)cn3C)cc2)cn1C` [(Ib-39)], for which the IC50 in test [1] (H226 cells) was determined as 0.006 nM; in test [2] it was 0.002 nM; in test [3] (OVCAR3 cells), 0.011 nM; in test [4] (HCT116 cells) it was 0.003 nM.
`COC(=O)c1cc(NC(=O)c2cc(NC(=O)CCCOc3cc4c(cc3OC)C(=O)N3Cc5ccccc5C[C@H]3C=N4)cn2C)cn1C` [(Ib-40)]: the concentration for half-maximal inhibition (IC50) in test [1] (H226 cells) amounted to 0.1 nM; in test [2], 0.09 nM; in test [3] (OVCAR3 cells) it was 0.16 nM; in test [4] (HCT116 cells), 0.028 nM.
On the same counts, the results for `COc1cc2c(cc1OCCCC(=O)Nc1cc(C(=O)Nc3ccccc3)n(C)c1)N=C[C@@H]1Cc3ccccc3CN1C2=O` [(Ib-41)] are 0.083 nM, 0.038 nM, 0.053 nM and 0.022 nM.
Turning to `COc1cc2c(cc1OCCCC(=O)Nc1cc(C(=O)NC3CC3)n(C)c1)N=C[C@@H]1Cc3ccccc3CN1C2=O` [(Ib-42)], the IC50 in test [1] (H226 cells) came to 0.49 nM; in test [2], 0.39 nM; in test [3] (OVCAR3 cells), 0.32 nM; in test [4] (HCT116 cells) it was 0.38 nM.
`COc1cc2c(cc1OCCCC(=O)Nc1cc(C(=O)Nc3ccc(-c4ccccc4)cc3)n(C)c1)N=C[C@@H]1Cc3ccccc3CN1C2=O` [(Ib-43)]: the IC50 in test [1] (H226 cells) is 0.013 nM; in test [2], 0.026 nM; in test [3] (OVCAR3 cells) it was 0.025 nM; in test [4] (HCT116 cells), 0.008 nM.
`COc1cc2c(cc1OCCCC(=O)Nc1cc(C(=O)Nc3ccccn3)n(C)c1)N=C[C@@H]1Cc3ccccc3CN1C2=O` [(Ib-44)]: the IC50 in test [1] (H226 cells) worked out at 0.085 nM; in test [2] it was 0.055 nM; in test [3] (OVCAR3 cells) it was 0.053 nM; in test [4] (HCT116 cells), 0.045 nM.
As for `COc1cc2c(cc1OCCCC(=O)Nc1cc(C(=O)Nc3ccc(Cl)cn3)n(C)c1)N=C[C@@H]1Cc3ccccc3CN1C2=O` [(Ib-45)], the IC50 in test [1] (H226 cells) was 0.085 nM; in test [2] it was 0.025 nM; in test [3] (OVCAR3 cells) it was 0.01 nM; in test [4] (HCT116 cells), 0.032 nM.
Take `COc1cc2c(cc1OCCCC(=O)Nc1cc(C(=O)Nc3cccnc3)n(C)c1)N=C[C@@H]1Cc3ccccc3CN1C2=O` [(Ib-46)]: the IC50 in test [1] (H226 cells) was determined as 0.27 nM; in test [2], 0.12 nM; in test [3] (OVCAR3 cells), 0.55 nM; in test [4] (HCT116 cells) it was 0.13 nM.
Turning to `COc1cc2c(cc1OCCCC(=O)Nc1cc(C(=O)Nc3ccc(Cl)nc3)n(C)c1)N=C[C@@H]1Cc3ccccc3CN1C2=O` [(Ib-47)], the IC50 in test [1] (H226 cells) is 0.13 nM; in test [2], 0.022 nM; in test [3] (OVCAR3 cells), 0.13 nM; in test [4] (HCT116 cells), 0.019 nM.
Take `COc1cc2c(cc1OCCCC(=O)Nc1cn(C)c(C(=O)Nc3ccccc3)n1)N=C[C@@H]1Cc3ccccc3CN1C2=O` [(Ib-48)]: the IC50 is 0.18 nM in test [1] (H226 cells), 0.075 nM in test [2], 0.094 nM in test [3] (OVCAR3 cells) and 0.039 nM in test [4] (HCT116 cells).
Turning to `COc1cc2c(cc1OCCCC(=O)Nc1cc(C(=O)Nc3ccc(-c4cc(-c5ncco5)n(C)c4)cc3)n(C)c1)N=C[C@@H]1Cc3ccccc3CN1C2=O` [(Ib-49)], the half-inhibitory concentration (IC50) in test [1] (H226 cells) is 0.062 nM; in test [2], 0.16 nM; in test [3] (OVCAR3 cells), 0.32 nM; in test [4] (HCT116 cells), 0.051 nM.
For `COc1cc2c(cc1OCCCC(=O)Nc1cc(C(=O)Nc3ccc(OCc4ccccc4)cc3)n(C)c1)N=C[C@@H]1Cc3ccccc3CN1C2=O` [(Ib-51)], the 50% inhibitory concentration (IC50) in test [1] (H226 cells) amounted to 0.11 nM; in test [2], 0.037 nM; in test [3] (OVCAR3 cells), 0.7 nM; in test [4] (HCT116 cells), 0.022 nM.
On the same counts, the results for `COc1cc2c(cc1OCCCC(=O)Nc1cc(C(=O)Nc3ccc(N)cc3)n(C)c1)N=C[C@@H]1Cc3ccccc3CN1C2=O` [(Ib-52)] are 0.3 nM, 0.45 nM, 0.63 nM and 0.28 nM.
As to `COc1cc(-c2ccc(NC(=O)c3cc(NC(=O)CCCOc4cc5c(cc4OC)C(=O)N4Cc6ccccc6C[C@H]4C=N5)cn3C)c(OC)c2)ccc1N` [(Ib-53)], the IC50 in test [1] (H226 cells) stood at 0.13 nM; in test [2], 0.092 nM; in test [3] (OVCAR3 cells) it was 0.22 nM; in test [4] (HCT116 cells), 0.098 nM.
Take `COc1cc2c(cc1OCCCC(=O)Nc1cc(C(=O)Nc3ccc(-c4ccc(N)cc4)cc3)n(C)c1)N=C[C@@H]1Cc3ccccc3CN1C2=O` [(Ib-54)]: the half-inhibitory concentration (IC50) in test [1] (Homo sapiens, NCI-H226, H226 cells) amounted to 0.05 nM; in test [2] (Homo sapiens), 0.027 nM; in test [3] (Homo sapiens, OVCAR-3, OVCAR3 cells) it was 0.071 nM; in test [4] (Homo sapiens, HCT-116, HCT116 cells), 0.007 nM.
Take `COC(=O)c1cc(-c2ccc(NC(=O)c3nc(NC(=O)CCCOc4cc5c(cc4OC)C(=O)N4Cc6ccccc6C[C@H]4C=N5)cn3C)cc2)cn1C` [(Ib-55)]: the IC50 in test [1] (H226 cells) is 0.018 nM; in test [2], below 0.004 nM; in test [3] (OVCAR3 cells), 0.045 nM; in test [4] (HCT116 cells), 0.004 nM.
